Laboratory results published in ChEMBL document CHEMBL1201862, “PubChem BioAssay data set” (2004).
Active and inactive are the calls of the source.

Legend:
ORF 73 = target: T1, ORF 73 (Human herpesvirus 8, UniProt O40947); assay: inhibitors of C-LANA binding to LBS DNA, dose response, biochemical, fluorescence polarization, cherry-picked samples (AID 504725); parameters: species or system Human gammaherpesvirus 8;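 note: fluorescence polarization of a labeled DNA duplex reporting LANA DNA binding; potency is for inhibitors that block LANA binding to the DNA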
T1 sequence (O40947 whole entry): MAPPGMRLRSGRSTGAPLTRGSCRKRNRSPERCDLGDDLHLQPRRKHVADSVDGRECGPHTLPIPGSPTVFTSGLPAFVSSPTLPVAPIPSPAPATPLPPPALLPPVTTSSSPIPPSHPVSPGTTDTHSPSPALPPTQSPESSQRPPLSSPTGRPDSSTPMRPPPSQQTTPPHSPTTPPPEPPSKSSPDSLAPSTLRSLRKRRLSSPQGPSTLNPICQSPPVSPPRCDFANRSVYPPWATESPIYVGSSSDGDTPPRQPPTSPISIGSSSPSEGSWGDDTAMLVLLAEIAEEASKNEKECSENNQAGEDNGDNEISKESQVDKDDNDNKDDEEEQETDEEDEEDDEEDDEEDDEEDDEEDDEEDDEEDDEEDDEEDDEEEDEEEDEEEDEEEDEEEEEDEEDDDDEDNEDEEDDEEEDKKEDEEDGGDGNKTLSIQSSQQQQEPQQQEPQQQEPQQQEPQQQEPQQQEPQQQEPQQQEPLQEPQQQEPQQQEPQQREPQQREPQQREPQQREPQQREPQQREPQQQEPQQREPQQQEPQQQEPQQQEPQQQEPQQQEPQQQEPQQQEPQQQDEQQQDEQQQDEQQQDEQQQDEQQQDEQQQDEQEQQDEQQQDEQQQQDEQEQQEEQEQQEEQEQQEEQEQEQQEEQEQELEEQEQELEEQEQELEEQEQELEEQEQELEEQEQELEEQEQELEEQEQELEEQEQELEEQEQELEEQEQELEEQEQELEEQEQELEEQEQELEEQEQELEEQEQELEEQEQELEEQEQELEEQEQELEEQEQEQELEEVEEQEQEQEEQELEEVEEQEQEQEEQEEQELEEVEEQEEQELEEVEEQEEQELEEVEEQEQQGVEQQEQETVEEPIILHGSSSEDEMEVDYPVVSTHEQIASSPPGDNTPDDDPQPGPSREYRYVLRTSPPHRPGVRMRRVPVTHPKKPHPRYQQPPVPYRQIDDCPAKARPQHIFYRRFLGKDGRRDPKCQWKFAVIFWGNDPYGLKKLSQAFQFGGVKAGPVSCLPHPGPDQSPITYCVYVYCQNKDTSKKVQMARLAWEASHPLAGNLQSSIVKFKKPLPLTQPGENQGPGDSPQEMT

[1] = target: UDP-galactopyranose mutase (Mycobacterium tuberculosis, UniProt P9WIQ1); assay: Inhibitors of Mycobacterium tuberculosis UDP-galactopyranose mutase (UGM) enzyme Measured in Biochemical System Using Plate Reader - 2105-02_Inhibitor_Dose_CherryPick_Activity. [Related pubchem assays (depositor defined):AID504439]
Keap1/Nrf2 = Keap1/Nrf2 (Homo sapiens, UniProt Q14145); assay: Keap1-Nrf2 protein-protein interaction inhibitors, dose response, biochemical, fluorescence polarization, cherry-picked samples (AID 588683)
Jurkat = assay: antigen receptor-induced NF-kB inhibitors, dose response, Jurkat, luciferase reporter, luminescence, B- and T-cell (AID 489004); format: functional, cell-based; conditions: Homo sapiens;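 note: NF-kB luciferase reporter Jurkat cells stimulated with PMA plus ionomycin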
[2] = cytotoxicity in HEK-293T NF-kB-Luc cells, dose response, cytotoxicity control for B/T-cell NF-kB inhibitor project, cell-based, uHTS hits (AID 489019); format: functional;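 note: IC50 reflects cytotoxicity as loss of cell viability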
[3] = Shn3 3'UTR reporter inhibitors, dose response, cell-based, Clone20 osteoblasts, firefly luciferase, cherry-picked (AID 624132); format: functional;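 note: firefly luciferase luminescence from reporter carrying the Shn3 3'UTR in osteoblasts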
[4] = HepG2 cell cytotoxicity, dose response, cytotoxicity control for Shn3 inhibitor project, CellTiter-Glo, cherry-picked (AID 624134); format: functional, cell-based
[5] = control 3'UTR Renilla luciferase suppression, dose response, counter-screen for Shn3 inhibitor project, cell-based, Clone20-Shn3RL, cherry-picked (AID 624133); format: functional
CAAX prenyl protease 2 = target: T2, CAAX prenyl protease 2 (Homo sapiens, UniProt Q9Y256); assay: human Rce1 protease inhibitors, dose response, biochemical, yeast membranes, quenched-peptide fluorescence, cherry-pick (AID 588849)
T2 sequence (Q9Y256 whole entry): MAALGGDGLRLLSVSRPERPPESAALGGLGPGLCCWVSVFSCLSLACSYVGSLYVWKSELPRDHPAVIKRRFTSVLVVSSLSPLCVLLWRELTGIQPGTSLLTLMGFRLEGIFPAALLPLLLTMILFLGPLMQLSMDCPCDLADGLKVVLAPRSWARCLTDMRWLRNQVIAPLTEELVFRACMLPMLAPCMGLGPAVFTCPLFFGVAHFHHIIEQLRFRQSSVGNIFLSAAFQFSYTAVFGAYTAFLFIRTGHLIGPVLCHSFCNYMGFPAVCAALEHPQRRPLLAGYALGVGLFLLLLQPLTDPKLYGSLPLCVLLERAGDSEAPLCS

[6] = target: T3, High affinity choline transporter 1 (Homo sapiens, UniProt Q9GZV3); assay: CHT inhibitors, dose response, cell-based, 5-point CRC, membrane potential dye (AID 504840); format: functional
T3 sequence (Q9GZV3 whole entry): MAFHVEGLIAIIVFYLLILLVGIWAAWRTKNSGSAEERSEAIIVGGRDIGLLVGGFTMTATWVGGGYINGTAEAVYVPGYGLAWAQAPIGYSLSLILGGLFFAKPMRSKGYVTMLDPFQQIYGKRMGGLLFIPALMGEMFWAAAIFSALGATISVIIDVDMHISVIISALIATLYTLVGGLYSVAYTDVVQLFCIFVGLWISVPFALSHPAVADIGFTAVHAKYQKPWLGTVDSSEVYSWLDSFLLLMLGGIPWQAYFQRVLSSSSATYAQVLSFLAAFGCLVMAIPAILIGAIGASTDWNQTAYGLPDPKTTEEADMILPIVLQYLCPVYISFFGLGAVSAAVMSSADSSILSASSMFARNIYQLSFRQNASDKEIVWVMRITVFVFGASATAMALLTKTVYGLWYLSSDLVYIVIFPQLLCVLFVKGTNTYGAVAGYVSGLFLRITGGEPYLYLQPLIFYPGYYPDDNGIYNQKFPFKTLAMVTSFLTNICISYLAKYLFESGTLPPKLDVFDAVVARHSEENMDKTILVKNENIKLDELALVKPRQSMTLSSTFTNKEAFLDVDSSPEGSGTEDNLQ

[7] = inhibitors of PGC1a acetylation in cells, dose response, cell-based, cherry-picked samples (AID 720514); format: functional;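 note: potency may reflect raised or lowered acetylation signal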
[8] = target: T4, Corticotropin-releasing factor receptor 2/Corticotropin-releasing factor-binding protein (Homo sapiens, UniProt P24387+Q13324); assay: Dose Response confirmation of uHTS hits for small molecule antagonists of the CRF-binding protein and CRF-R2 receptor complex.; format: functional; conditions: read-out: IC50_Mean
T4 sequence (Q13324 whole entry): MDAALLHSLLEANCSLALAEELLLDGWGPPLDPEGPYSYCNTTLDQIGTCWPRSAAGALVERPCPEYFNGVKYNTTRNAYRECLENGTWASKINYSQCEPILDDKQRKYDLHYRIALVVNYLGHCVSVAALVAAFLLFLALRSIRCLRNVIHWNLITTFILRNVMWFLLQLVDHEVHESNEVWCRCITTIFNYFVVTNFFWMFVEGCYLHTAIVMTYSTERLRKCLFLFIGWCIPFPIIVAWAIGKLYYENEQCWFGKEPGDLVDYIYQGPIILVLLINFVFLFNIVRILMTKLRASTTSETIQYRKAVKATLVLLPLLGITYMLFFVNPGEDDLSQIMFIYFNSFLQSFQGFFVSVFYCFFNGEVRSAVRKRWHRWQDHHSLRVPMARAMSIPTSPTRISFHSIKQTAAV
T4 sequence (P24387 whole entry): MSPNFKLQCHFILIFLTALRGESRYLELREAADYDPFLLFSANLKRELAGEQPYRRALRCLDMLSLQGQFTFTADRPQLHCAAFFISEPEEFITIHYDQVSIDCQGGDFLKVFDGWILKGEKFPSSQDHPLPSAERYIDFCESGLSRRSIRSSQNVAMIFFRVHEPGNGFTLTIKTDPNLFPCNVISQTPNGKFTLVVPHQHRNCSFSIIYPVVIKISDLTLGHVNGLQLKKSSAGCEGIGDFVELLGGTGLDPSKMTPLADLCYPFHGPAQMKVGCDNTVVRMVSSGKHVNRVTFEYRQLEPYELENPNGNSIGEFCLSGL

[9] = target: T4, Corticotropin-releasing factor receptor 2/Corticotropin-releasing factor-binding protein; assay: activators of CRF receptor 2 with binding protein – uHTS hits, confirmation (AID 602473); format: functional; conditions: read-out: EC50_Mean
cells [10] = format: functional, cell-based
[11] = Luminescence Cell-Based Dose Response HTS to Identify Inhibitors of 5'UTR Stem-Loop Driven Prion Protein mRNA Translation in H4 Neuroglioblastoma Cells. [Related pubchem assays: 1827 (Project Summary), 1813 (Primary HTS)]; format: functional
[12] = microbe, parasite or virus in culture; format: functional; conditions: Mycobacterium tuberculosis
cells [13] = format: functional, cell-based; remark: listed apart in the source
[14] = target: T5, Calpain-2 catalytic subunit (Sus scrofa, UniProt P43367); assay: pig calpain II inhibitor potency, dose response, biochemical, fluorogenic peptide substrate (AID 1420); format: functional
T5 sequence (P43367 whole entry): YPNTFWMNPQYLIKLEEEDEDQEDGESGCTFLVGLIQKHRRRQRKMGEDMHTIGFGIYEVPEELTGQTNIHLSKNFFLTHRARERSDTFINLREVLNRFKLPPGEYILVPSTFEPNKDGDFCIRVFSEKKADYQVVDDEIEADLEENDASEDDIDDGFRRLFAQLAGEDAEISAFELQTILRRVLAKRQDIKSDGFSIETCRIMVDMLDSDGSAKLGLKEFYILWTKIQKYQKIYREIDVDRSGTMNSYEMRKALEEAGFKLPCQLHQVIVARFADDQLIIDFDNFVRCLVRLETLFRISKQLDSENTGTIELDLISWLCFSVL

Troponin, cardiac muscle = Troponin, cardiac muscle (Homo sapiens, UniProt P19429+P45379+P63316); assay: Fluorescence-based biochemical high throughput dose response assay for activators of the calcium sensitivity of cardiac Regulated Thin Filaments (RTF). [Related pubchem assays (depositor defined):AID493008, AID493018, AID504382, AID504383]; format: protein-complex assay
[15] = target: Heat shock protein HSP 90-alpha (Homo sapiens, UniProt P07900); format: functional, organism-based
[16] = HeLa cell cytotoxicity, dose response, cytotoxicity control for MgcRacGAP inhibitor project (AID 624300); format: functional
[17] = target: T6, Rac GTPase-activating protein 1 (Homo sapiens, UniProt Q9H0H5); assay: MgcRacGAP GTPase-activating activity inhibitors, confirmation, biochemical, ADP Hunter fluorescence, primary and confirmatory (AID 624330); format: functional
T6 sequence (Q9H0H5 whole entry): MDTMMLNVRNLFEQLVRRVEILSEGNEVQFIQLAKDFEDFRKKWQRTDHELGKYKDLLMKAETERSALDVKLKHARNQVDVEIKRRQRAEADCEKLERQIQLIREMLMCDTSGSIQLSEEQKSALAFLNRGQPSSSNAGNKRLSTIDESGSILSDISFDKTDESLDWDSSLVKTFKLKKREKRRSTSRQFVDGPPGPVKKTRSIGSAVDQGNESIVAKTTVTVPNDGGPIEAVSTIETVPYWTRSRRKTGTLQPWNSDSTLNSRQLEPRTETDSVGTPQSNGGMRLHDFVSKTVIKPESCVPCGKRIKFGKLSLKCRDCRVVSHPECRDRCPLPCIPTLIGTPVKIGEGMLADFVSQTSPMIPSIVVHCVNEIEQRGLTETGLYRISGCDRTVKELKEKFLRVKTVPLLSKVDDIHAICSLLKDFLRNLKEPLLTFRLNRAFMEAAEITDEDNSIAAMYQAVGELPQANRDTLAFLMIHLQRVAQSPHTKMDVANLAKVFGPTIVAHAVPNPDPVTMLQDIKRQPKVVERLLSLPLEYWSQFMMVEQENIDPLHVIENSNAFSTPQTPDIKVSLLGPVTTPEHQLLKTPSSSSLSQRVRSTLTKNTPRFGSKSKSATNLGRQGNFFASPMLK

[18] = target: T7, COUP transcription factor 2 (Homo sapiens, UniProt P24468); assay: Luminescence-based cell-based high throughput dose response assay to identify inhibitors of COUP-TFII (NR2F2).; format: functional;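 note: HEK293 cells transiently cotransfected with COUP-TFII expression vector and reporter; luciferase reporter luminescence driven by COUP-TFII from the pX2-168 reporter plasmid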
T7 sequence (P24468 whole entry): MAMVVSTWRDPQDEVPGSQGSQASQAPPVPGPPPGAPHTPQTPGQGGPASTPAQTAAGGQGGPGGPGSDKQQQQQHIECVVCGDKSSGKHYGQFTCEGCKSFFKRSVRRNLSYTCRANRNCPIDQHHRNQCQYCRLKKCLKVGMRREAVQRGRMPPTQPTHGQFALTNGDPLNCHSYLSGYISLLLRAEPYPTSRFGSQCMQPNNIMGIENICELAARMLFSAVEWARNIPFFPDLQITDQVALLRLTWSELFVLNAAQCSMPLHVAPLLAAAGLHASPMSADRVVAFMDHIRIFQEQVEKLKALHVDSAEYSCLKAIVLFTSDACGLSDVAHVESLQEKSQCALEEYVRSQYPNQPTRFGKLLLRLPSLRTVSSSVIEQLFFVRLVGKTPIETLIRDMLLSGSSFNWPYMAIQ

UDP-galactopyranose mutase, sequence (P9WIQ1 whole entry): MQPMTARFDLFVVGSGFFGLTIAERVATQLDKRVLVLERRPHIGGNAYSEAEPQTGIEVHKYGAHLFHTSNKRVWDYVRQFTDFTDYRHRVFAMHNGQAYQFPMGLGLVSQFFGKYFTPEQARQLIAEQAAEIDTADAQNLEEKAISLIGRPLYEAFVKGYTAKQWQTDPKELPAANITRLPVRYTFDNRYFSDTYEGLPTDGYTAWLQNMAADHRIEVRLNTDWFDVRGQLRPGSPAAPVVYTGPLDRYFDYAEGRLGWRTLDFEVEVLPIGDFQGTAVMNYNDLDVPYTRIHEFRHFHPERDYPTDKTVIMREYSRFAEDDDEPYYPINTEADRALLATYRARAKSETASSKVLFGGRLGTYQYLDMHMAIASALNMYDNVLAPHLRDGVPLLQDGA
Keap1/Nrf2, sequence (Q16236 whole entry): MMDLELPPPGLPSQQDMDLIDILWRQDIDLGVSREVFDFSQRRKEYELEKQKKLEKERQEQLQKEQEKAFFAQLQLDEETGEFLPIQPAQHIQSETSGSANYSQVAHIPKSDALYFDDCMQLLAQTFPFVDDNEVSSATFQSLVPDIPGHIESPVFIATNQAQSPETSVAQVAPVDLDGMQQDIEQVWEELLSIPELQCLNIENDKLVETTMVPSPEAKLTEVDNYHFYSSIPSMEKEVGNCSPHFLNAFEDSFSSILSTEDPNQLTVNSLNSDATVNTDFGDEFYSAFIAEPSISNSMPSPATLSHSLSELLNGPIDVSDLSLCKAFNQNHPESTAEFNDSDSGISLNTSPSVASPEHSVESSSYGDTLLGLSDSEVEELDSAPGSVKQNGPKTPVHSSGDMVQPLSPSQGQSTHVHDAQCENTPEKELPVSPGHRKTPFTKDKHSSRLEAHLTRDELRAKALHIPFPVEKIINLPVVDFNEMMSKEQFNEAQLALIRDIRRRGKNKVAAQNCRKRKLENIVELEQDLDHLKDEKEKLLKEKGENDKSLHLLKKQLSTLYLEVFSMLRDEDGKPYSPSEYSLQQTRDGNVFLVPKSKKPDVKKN
Keap1/Nrf2, sequence (Q14145 whole entry): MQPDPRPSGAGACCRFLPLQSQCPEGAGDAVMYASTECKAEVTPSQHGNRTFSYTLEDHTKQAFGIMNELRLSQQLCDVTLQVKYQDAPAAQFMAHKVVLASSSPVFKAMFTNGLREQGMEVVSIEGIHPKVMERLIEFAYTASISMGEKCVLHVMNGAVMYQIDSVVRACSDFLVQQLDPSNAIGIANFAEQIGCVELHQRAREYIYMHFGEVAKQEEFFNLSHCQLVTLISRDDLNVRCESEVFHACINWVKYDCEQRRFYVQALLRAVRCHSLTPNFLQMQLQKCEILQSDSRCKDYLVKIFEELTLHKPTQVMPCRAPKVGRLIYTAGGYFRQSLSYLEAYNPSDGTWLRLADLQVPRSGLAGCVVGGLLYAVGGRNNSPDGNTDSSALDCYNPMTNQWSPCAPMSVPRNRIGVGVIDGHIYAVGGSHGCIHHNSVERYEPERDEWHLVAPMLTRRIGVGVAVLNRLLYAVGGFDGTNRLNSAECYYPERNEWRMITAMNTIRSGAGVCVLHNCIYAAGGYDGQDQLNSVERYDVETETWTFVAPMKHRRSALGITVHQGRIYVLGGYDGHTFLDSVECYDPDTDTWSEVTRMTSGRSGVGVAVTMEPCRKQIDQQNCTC

Compound: Nc1ccc2nc3c(=O)n(C4CCCCC4)c(=O)[nH]c3nc2c1
- AC50 (ORF 73): 1.42 µM (active)
- AC50 [1]: 2.64 µM (active)
- AC50 (Keap1/Nrf2): 9.04 µM (active)

Compound: CC1(c2ccc3ccccc3c2)NC(=O)N(CC(=O)N2CCN(Cc3ccc(C#N)cc3)CC2)C1=O (stereo unspecified)
- IC50 (Jurkat): > 80 µM (inactive)
- IC50 [2]: > 80 µM (inactive)
- AC50 [3]: 0.416 µM (active)
- AC50 [4]: < 0.26 µM (active)
- AC50 [5]: 1.04 µM (active)

Compound: CC(=O)NN1C(=O)c2ccccc2NC1c1ccccc1 (stereo unspecified)
- AC50 (CAAX prenyl protease 2): > 100 µM (inactive)

Compound: Cc1cccc(NS(=O)(=O)c2cccc(C(=O)NCC(c3ccco3)N3CCCCC3)c2)c1 (stereo unspecified)
- IC50 [6]: 22 µM (active)
- AC50 [7]: 32.2 µM (active)

Compound: O=c1[nH]c(=O)n(-c2ccc(F)cc2)c2c1C(C(F)(F)F)(C(F)(F)F)N=C(c1ccc(F)cc1)N2
- IC50 [6]: 12 µM (active)
- IC50 [8]: 4.69 µM (active)
- EC50 [9]: > 53 µM (inactive)

Compound: CCN1/C(=C/c2ccc3cc(C)ccc3[n+]2CC)Sc2ccccc21
- EC50 (cells [10]): > 350 µM (not active)
- EC50 [11]: > 120 µM (not active)
- CC50 [12]: 1.92 µM (active)
- EC50 (cells [13]): > 350 µM (not active)
- IC50 [14]: 16.4 µM (not active)
- IC50 (Jurkat): 2.6 µM (active)
- EC50 (Troponin, cardiac muscle): 10.4 µM (inactive)
- IC50 [2]: > 80 µM (inactive)
- AC50 [15]: 7.73 µM (active)
- CC50 [16]: 12.5 µM (active)
- IC50 [17]: 59.5 µM (active)
- IC50 [18]: 1.55 µM (active)
